# According to patent US20080269213A1, “8-Hydroxyquinoline compounds and methods thereof” (Wyeth, priority 2006, published 2008):
# pIC50: −log10 of the molar value.
# Biological target: T1, recombinant human Aggrecanase-2 Agg2-Phe628 (Homo sapiens, UniProt Q9UNA0)
# T1 sequence (Q9UNA0 262-628 limits assumed): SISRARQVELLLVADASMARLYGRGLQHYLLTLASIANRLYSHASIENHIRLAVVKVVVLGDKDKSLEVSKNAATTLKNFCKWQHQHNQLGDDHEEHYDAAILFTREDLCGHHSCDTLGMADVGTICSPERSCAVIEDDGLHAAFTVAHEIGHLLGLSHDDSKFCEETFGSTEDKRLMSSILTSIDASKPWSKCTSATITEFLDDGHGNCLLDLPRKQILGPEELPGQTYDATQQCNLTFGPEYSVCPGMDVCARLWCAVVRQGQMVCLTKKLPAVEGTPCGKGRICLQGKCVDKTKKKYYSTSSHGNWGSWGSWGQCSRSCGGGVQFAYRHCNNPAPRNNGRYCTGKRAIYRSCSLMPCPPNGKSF
# Test: Aggrecanase 2 in vitro enzyme assay (Agg-2 FRET, quenched fluorescent peptide substrate)
# Assay type: biochemical
# Design: purified recombinant human Aggrecanase-2 Agg2-Phe628 (MW=41,737); This is a truncated form of full-length human aggrecanase-2; made in house; host or cells: CHO cells
# Details: @ 2500 nM
# Description: A continuous assay was used in which the substrate was a synthetic peptide containing a fluorescent group (o-aminobenzyl, Abz), which was quenched by energy transfer to a 2,4-dinitrophenyl group (Dnp). The buffer used in this assay was 50 mM HEPES, pH 7.5, 100 mM NaCl, 5 mM CaCl2, 0.1% CHAPS, 5% glycerol. The source of enzyme was purified recombinant human Aggrecanase-2 Agg2-Phe628 (MW=41,737). This is a truncated form of full-length human aggrecanase-2 that was expressed in CHO cells and purified. The final concentration of Agg2-Phe628 was 0.5 μg/ml. […] It is a synthetic peptide that is designed after a portion of brevican, one of the naturally occurring substrates of Aggrecanase-2, of the sequence Abz-[…]-Dap(Dnp)-KK—NH2 (mass=1740). The concentration of this substrate stock was spectrophotometrically determined using the extinction coefficient at 354 nm of 18,172 M^−1cm^−1. […] The final concentration of substrate in the assay was 25 μM.
# Test compounds (in duplicate) were serially diluted from 2 mM to 0.01 μM in 100% DMSO. The total reaction volume was 100 μl. The buffer and enzyme were added first followed by addition of 10× inhibitor from the dilution plate. Enzyme and buffer alone samples were included in order to obtain the maximal rate of substrate cleavage. […] Then substrate was added, mixed and the reaction monitored for 40 min at 30° C. in kinetic mode using λex: 340 nm and % λem: 420 (GeminiXS Molecular Devices).
row,inhibition at […] [%],Compound
1,62,O=C(COc1ccccc1)NC(c1ccccc1O)c1cc(Cl)c2cccnc2c1O (centres unmarked) [N-[(5-chloro-8-hydroxyquinolin-7-yl)(2-hydroxyphenyl)methyl]-2-phenoxyacetamide]

# Same assay, conditions: concentration not given
row,Agg-2 FRET Median PCT INHIB [%],Compound
1,57,"O=C(COc1ccccc1)NC(c1ccc(Cl)cc1Cl)c1cc(Cl)c2cccnc2c1O (centres unmarked) [N-[(5-chloro-8-hydroxyquinolin-7-yl)(2,4-dichlorophenyl)methyl]-2-phenoxyacetamide]"
2,60,"Cc1ccc(C(NC(=O)COc2ccccc2)c2cc(Cl)c3cccnc3c2O)c(C)c1 (centres unmarked) [N-[(5-chloro-8-hydroxyquinolin-7-yl)(2,4-dimethylphenyl)methyl]-2-phenoxyacetamide]"
3,48,O=C(CCCc1ccccc1)NC(c1ccccc1Cl)c1cc(Cl)c2cccnc2c1O (centres unmarked) [N-[(5-chloro-8-hydroxyquinolin-7-yl)(2-chlorophenyl)methyl]-4-phenylbutanamide]
4,49,Cc1ccccc1C(NC(=O)CCCc1ccccc1)c1cc(Cl)c2cccnc2c1O (centres unmarked) [N-[(5-chloro-8-hydroxyquinolin-7-yl)(2-methylphenyl)methyl]-4-phenylbutanamide]
5,53,Cc1cc(OCC(=O)NC(c2cccc([N+](=O)[O-])c2)c2cc(Cl)c3cccnc3c2O)ccc1Cl (centres unmarked) [N-[(5-chloro-8-hydroxyquinolin-7-yl)(3-nitrophenyl)methyl]-2-(4-chloro-3-methylphenoxy)acetamide]

# Same assay, conditions: read-out: Agg-2 FRET Median IC50
row,pIC50,Compound
1,5.56,O=C(COc1ccccc1)NC(c1cccc(F)c1)c1ccc2cccnc2c1O (centres unmarked) [N-[(3-fluorophenyl)(8-hydroxyquinolin-7-yl)methyl]-2-phenoxyacetamide]
2,5.47,O=C(COc1ccccc1)NC(c1ccc(Cl)cc1)c1ccc2cccnc2c1O (centres unmarked) [N-[(4-chlorophenyl)(8-hydroxyquinolin-7-yl)methyl]-2-phenoxyacetamide]
3,6.00,Cc1ccccc1C(NC(=O)COc1ccccc1)c1cc(Br)c2cccnc2c1O (centres unmarked) [N-[(5-bromo-8-hydroxyquinolin-7-yl)(2-methylphenyl)methyl]-2-phenoxyacetamide]
4,6.28,O=C(COc1ccccc1)NC(c1cc([N+](=O)[O-])ccc1Cl)c1cc(Cl)c2cccnc2c1O (centres unmarked) [N-[(5-chloro-8-hydroxyquinolin-7-yl)(2-chloro-5-nitrophenyl)methyl]-2-phenoxyacetamide]
5,5.91,O=C(COc1ccccc1)NC(c1cccs1)c1cc(Cl)c2cccnc2c1O (centres unmarked) [N-[(5-chloro-8-hydroxyquinolin-7-yl)(2-thienyl)methyl]-2-phenoxyacetamide]
6,5.87,"O=C(COc1ccccc1)NC(c1ccc(Cl)c(Cl)c1)c1cc(Cl)c2cccnc2c1O (centres unmarked) [N-[(5-chloro-8-hydroxyquinolin-7-yl)(3,4-dichlorophenyl)methyl]-2-phenoxyacetamide]"
7,5.96,"COc1cc(OC)cc(C(NC(=O)COc2ccccc2)c2cc(Cl)c3cccnc3c2O)c1 (centres unmarked) [N-[(5-chloro-8-hydroxyquinolin-7-yl)(3,5-dimethoxyphenyl)methyl]-2-phenoxyacetamide]"
8,6.20,O=C(COc1ccccc1)NC(c1cccc(F)c1)c1cc(Cl)c2cccnc2c1O (centres unmarked) [N-[(5-chloro-8-hydroxyquinolin-7-yl)(3-fluorophenyl)methyl]-2-phenoxyacetamide]
9,5.73,COc1cccc(C(NC(=O)COc2ccccc2)c2cc(Cl)c3cccnc3c2O)c1 (centres unmarked) [N-[(5-chloro-8-hydroxyquinolin-7-yl)(3-methoxyphenyl)methyl]-2-phenoxyacetamide]
10,5.94,O=C(CCCc1ccccc1)NC(c1cccc([N+](=O)[O-])c1)c1cc(Cl)c2cccnc2c1O (centres unmarked) [N-[(5-chloro-8-hydroxyquinolin-7-yl)(3-nitrophenyl)methyl]-4-phenylbutanamide]
11,5.14,COc1cc(C(NC(=O)COc2ccccc2)c2cc(Cl)c3cccnc3c2O)ccc1O (centres unmarked) [N-[(5-chloro-8-hydroxyquinolin-7-yl)(4-hydroxy-3-methoxyphenyl)methyl]-2-phenoxyacetamide]
